Results: patent US20040097594A1 (priority 1998, published 2004)
Read-outs that look alike come from different tables or passages of the source.

What was measured:
HIV-1 protease = HIV-1 protease (Human immunodeficiency virus type 1 group M subtype B, UniProt P04585); test: biochemical; conditions: HIV-1 protease; upper line of each compound's entry; read-out: Ki (enzyme)
HIV-1 (strain IIIB) = test: microbe, parasite or virus in culture; format: cell-based; conditions: lower line of each compound's entry, read-out: IC50 (MT-4 cells)
[1] = Human immunodeficiency virus 1, 120 h, MT4 cells infected with HIV-1 strain IIIB, 5 days
[2] = MT4 cells infected with HIV-1 strain IIIB, 5 days

## Nc1nc2ccc(S(=O)(=O)N(C[C@@H](O)[C@H](Cc3ccccc3)NC(=O)OC3COCOC3)OC3CCCC3)cc2s1 [Compound 125]
HIV-1 protease
  Ki: < 1 nM
HIV-1 (strain IIIB); [1]
  IC50: ≤ 100 nM

## CCC(C)ON(C[C@@H](O)[C@H](Cc1ccccc1)NC(=O)OC(C)(C)C)S(=O)(=O)c1ccc(OC)cc1 (stereo partly drawn) [Compound 15, tert-butyl N-((1S,2R)-1-benzyl-3-sec-butoxy[(4-methoxyphenyl)sulfonyl]amino-2-hydroxypropyl)carbamate]
HIV-1 protease
  Ki: 1 to 10 nM
HIV-1 (strain IIIB); [1]
  IC50: > 1000 nM

## COc1ccc(S(=O)(=O)N(C[C@@H](O)[C@H](Cc2ccccc2)NC(=O)O[C@@H]2CO[C@H]3OCC[C@H]32)OC2CCCC2)cc1 [Compound 117]
HIV-1 protease
  Ki: > 100 nM
HIV-1 (strain IIIB); [1]
  IC50: 500 to 1000 nM

## CCC(C)ON(C[C@@H](O)[C@H](Cc1ccccc1)NC(=O)OC1COCOC1)S(=O)(=O)c1ccc(OC)cc1 (stereo partly drawn) [Compound 69, 1,3-dioxan-5-yl N-((1S,2R)-1-benzyl-3-sec-butoxy[(4-methoxyphenyl)sulfonyl]amino-2-hydroxypropyl)carbamate]
HIV-1 protease
  Ki: < 1 nM
HIV-1 (strain IIIB); [1]
  IC50: 100 to 500 nM

## CS(=O)(=O)Nc1nc2cc(S(=O)(=O)N(C[C@@H](O)[C@H](Cc3ccccc3)NC(=O)OC3COCOC3)OC3CCCC3)ccc2[nH]1 [Compound 132, 1,3-Dioxan-5-yl-N-((1S,2R)-1-benzyl-3-(cyclopentyloxy)(2-[(methylsulfonyl)amino)benzimidazol-5-ylsulfonyl)amino-2-hydroxypropyl)carbamate]
HIV-1 (strain IIIB); [2]
  IC50: ≤ 100 nM

## Nc1ccc(S(=O)(=O)N(CC(O)C(Cc2ccccc2)NC(=O)OC2COC3OCCC23)OC2CCCC2)cc1 [Example 172, (3S,3aR,6aS)hexahydrofuro[2,3-b]furan-3-yl N-(1S,2R)-3-[[(4-aminophenyl)sulfonyl](cyclopentyloxy)amino]-1-benzyl-2-hydroxypropyl carbamate]
HIV-1 (strain IIIB); [2]
  IC50: ≤ 100 nM

## O=C(N[C@@H](Cc1ccccc1)[C@H](O)CN(OC1CCCC1)S(=O)(=O)c1ccc(OCCN2CCOCC2)cc1)O[C@H]1CO[C@H]2OCC[C@H]21 [Compound 98, (3R,3aS,6aR)hexahydrofuro[2,3-b]furan-3-yl N-[(1S,2R)-1-benzyl-3-((cyclopentyloxy)[4-(2-morpholinoethoxy)phenyl]sulfonylamino)-2-hydroxypropyl]carbamate]
HIV-1 protease
  Ki: < 1 nM

## CC(C)ON(C[C@@H](O)[C@H](Cc1ccccc1)NC(=O)O[C@H]1CCOC1)S(=O)(=O)c1ccc2[nH]cnc2c1 [Compound 63, (3S)tetrahydro-3-furanyl N-(1S,2R)-3-[(1H-1,3-benzimidazol-5-ylsulfonyl)(isopropoxy)amino]-1-benzyl-2-hydroxypropylcarbamate]
HIV-1 protease
  Ki: 1 to 10 nM

## O=C(N[C@@H](Cc1ccccc1)[C@H](O)CN(OC1CCCC1)S(=O)(=O)c1ccc(O)cc1)O[C@H]1CO[C@H]2OCC[C@H]21 [Compound 41, (3R,3aS,6aR)hexahydrofuro[2,3-b]furan-3-yl N-((1S,2R)-1-benzyl-3-(cyclopentyloxy)[(4-hydroxyphenyl)sulfonyl]amino-2-hydroxypropyl)carbamate]
HIV-1 (strain IIIB); […]
  IC50: ≤ 100 nM

## CN(C)c1cccc(S(=O)(=O)N(CC(O)C(Cc2ccccc2)NC(=O)OC2COC3OCCC23)OC2CCCC2)c1 [Compound 43, (3R,3aS,6aR)hexahydrofuro[2,3-b]furan-3-yl N-(1S,2R)-3-[[(3-N,N-dimethylaminophenyl)sulfonyl)(cyclopentyloxy)amino)-1-benzyl-2-hydroxypropylcarbamate]
HIV-1 protease
  Ki: < 1 nM

## COc1ccc(S(=O)(=O)N(C[C@@H](O)[C@H](Cc2ccccc2)NC(=O)OC(C)(C)C)OC(C)CCC#N)cc1 (some centres unmarked) [Compound 152, tert-butyl 1-benzyl-3-{(3-cyano-1-methylpropoxy)[(4-methoxyphenyl)sulfonyl]amino}-2-hydroxypropylcarbamate]
HIV-1 (strain IIIB); [2]
  IC50: 500 to 1000 nM

## O=C(NC(Cc1ccccc1)C(O)CN(OC1CCCC1)S(=O)(=O)c1ccc2[nH]nnc2c1)OC1COC2OCCC12 [Compound 91, (3aS,6aR)Hexahydrofuro[2,3-b]furan-3-yl N-(1S,2R)-1-benzyl-3-[(cyclopentyloxy)(benzotriazole-5-ylsulfonyl)amino]-2-hydroxypropylcarbamate]
HIV-1 protease
  Ki: < 1 nM

## CC(=O)NCCNc1cccc(S(=O)(=O)N(CC(O)C(Cc2ccccc2)NC(=O)OC2COC3OCCC23)OC2CCCC2)c1 [Compound 84, (3R,3aS,6aR)hexahydrofuro[2,3-b]furan-3-yl N-(1S,2R)-3-[[(3-[2-(acetylamino)ethyl]aminophenyl)sulfonyl](cyclopentyloxy)amino]-1-benzyl-2-hydroxypropylcarbamate and (3S,3aR,6aS)hexahydrofuro[2,3-b]furan-3-yl N-(1S,2R)-3-[[(3-[2-(acetylamino)ethyl]aminophenyl)sulfonyl](cyclopentyloxy)amino]-1-benzyl-2-hydroxypropylcarbamate]
HIV-1 protease
  Ki: < 1 nM

## NC(=O)CNc1cccc(S(=O)(=O)N(CC(O)C(Cc2ccccc2)NC(=O)OC2COC3OCCC23)OC2CCCC2)c1 [Compound 85, (3R,3aS,6aR)hexahydrofuro[2,3-b]furan-3-yl N-(1S,2R)-3-[(3-[(2-amino-2-oxoethyl)amino]phenylsulfonyl)(cyclopentyloxy)amino]-1-benzyl-2-hydroxypropylcarbamate and (3S,3aR,6aS)hexahydrofuro[2,3-b]furan-3-yl N-(1S,2R)-3-[(3[(2-amino-2-oxoethyl)amino]phenylsulfonyl) (cyclopentyloxy)amino]-1-benzyl-2-hydroxypropylcarbamate]
HIV-1 protease
  Ki: < 1 nM

## O=C(N[C@@H](Cc1ccccc1)[C@H](O)CN(OC1CCCC1)S(=O)(=O)c1cccc(OCCN2CCOCC2)c1)O[C@H]1CO[C@H]2OCC[C@H]21 [Compound 99, (3R,3aS,6aR)hexahydrofuro[2,3-b]furan-3-yl N-[(1S, 2R)-1-benzyl-3-((cyclopentyloxy)[3-(2-morpholinoethoxy)phenyl]sulfonylamino)-2-hydroxypropyl]carbamate]
HIV-1 protease
  Ki: < 1 nM

## O=C(N[C@@H](Cc1ccccc1)[C@H](O)CN(OC1CCCC1)S(=O)(=O)c1ccc2[nH]nnc2c1)OC1COCOC1 [Compound 92, 1,3-Dioxan-5-yl N-(1S,2R)-1-benzyl-3-[(cyclopentyloxy)(benzotriazole-5-ylsulfonyl)amino]-2-hydroxypropylcarbamate]
HIV-1 protease
  Ki: < 1 nM

## O=C(N[C@@H](Cc1ccccc1)[C@H](O)CN(OC1CCCC1)S(=O)(=O)c1ccc(OCCO)cc1)O[C@H]1CO[C@H]2OCC[C@H]21 [Compound 42, (3R,3aS,6aR)hexahydrofuro[2,3-b]furan-3-yl N-[(1S,2R)-1-benzyl-3-((cyclopentyloxy)[4-(2-hydroxyethoxy)phenyl]sulfonylamino)-2-hydroxypropyl]carbamate]
HIV-1 protease
  Ki: < 1 nM

## COc1cc(C(=O)Nc2nc3cc(S(=O)(=O)N(C[C@@H](O)[C@H](Cc4ccccc4)NC(=O)OC(C)(C)C)OC4CCCC4)ccc3[nH]2)cc(OC)c1OC [Compound 12, Tert-butyl N-(1S,2R)-1-benzyl-3-[(cyclopentyloxy)(2-[(3,4,5-trimethoxyphenyl-carbonyl)amino]-1H-benzimidazol-5-ylsulfonyl)amino]-2-hydroxypropylcarbamate]
HIV-1 protease
  Ki: > 10 nM

## COC(=O)CC(=O)Nc1nc2cc(S(=O)(=O)N(C[C@@H](O)[C@H](Cc3ccccc3)NC(=O)OC(C)(C)C)OC3CCCC3)ccc2[nH]1 [Compound 13, Tert-butyl N-(1S,2R)-1-benzyl-3-[(cyclopentyloxy)(2-[(methyl3-oxopropionate)amino]-1H-benzimidazol-5-ylsulfonyl)amino]-2-hydroxypropylcarbamate]
HIV-1 protease
  Ki: 10 to 100 nM
